According to patent US4732898A, “2-(2-aryl-2-oxoalkylidene) analogs of-3,5-pyridinedicarboxylic acid dialkyl esters useful for treatment of cardiovascular disorders” (Warner-Lambert Company, priority 1987, dated 1988):
Read-outs that look alike come from different tables or passages of the source.

Tests used:
[1] = tested on: isolated Langendorff rat heart; assay: inotropic and vascular activities in the isolated Langendorff rat heart preparation (CVIH); conditions: isolated perfused rat heart
Description: TEST FOR INOTROPIC, CHRONOTROPIC, AND VASCULAR ACTIVITIES IN THE ISOLATED LANGENDORFF RAT HEART PREPARATION (CARDIOVASCULAR ISOLATED HEART - CVIH)
Male rats (400-600 gms) are pretreated with 2000 units Na heparin (Parke-Davis) and anesthetized with Na pentobarbital (50 mg/kg, Butler Co.) administered intraperitoneally. Once anesthetized, the rat heart is rapidly excised, the ascending aorta fitted to the aorta perfusion cannula, and secured with a ligature. The coronary arteries are perfused initially at a rate of about 15 ml/min for two to three minutes, after which they are perfused at constant pressure of 70 mm Hg and temperature of 37° C. The electrocardiogram (ECG) is recorded using two platinum electrodes positioned at the base and apex of the left ventricle (LV). The LV is instrumented via the mitral valve with a 4F Millar catheter tip pressure transducer. The catheter is advanced to the apex then withdrawn slightly. Once properly positioned, the catheter is anchored to the perfusion cannulae with an alligator clip. A second heart is excised, cannulated, and perfused by the same method outlined above. Both hearts are tested in parallel. The standard physiological salt solution (PSS) is a modified Krebs Henseleit bicarbonate buffer of the following composition in mM concentration: NaCl, 127; NaHCO^3, 25; dextrose, 5.5; Na Pyruvate, 2.0; KCl, 4.7; MgSO^4, 1.1; KH 2PO^4, 1.2; CaCl^2 ·2H^2, 2.5; CaNa^2 EDTA, 0.05.
A 30-minute stabilization period is observed before starting the test protocol.
A microprocessor control system is used as a servo mechanism which permits coronary perfusion pressure (CPP) and drug concentration to be maintained constant independent of changes in coronary flow. The level at which CPP and drug concentration are maintained can be changed by commands communicated through the microprocessor keyboard. Dose-response curves are carried out by perfusing concentrated drug solution (DC) at rates proportional to total coronary flow (CFT). Drug concentrations are increased by proportionate increases in the rate of DC infusion over CFT via the microprocessor keyboard. The proportional flow rates for DC:CFT are about 0.00005:1 at the low end and 0.0015:1 at the high end of the dose response curve.
Dose-response curves encompassing at least two log units are carried out in one-half log increments starting at a subthreshold dose and ending at a dose which produces near maximal response.
Measurements for CVIH are maximum positive first derivative of LVP (LV+dP/dtmax), heart rate (HR), and coronary flow (CF). Units are: LV+dP/dtmax, millimeters of mercury/second (mm Hg/sec); HR, beats/minute (bpm) and CF, milliliters/minute (ml/min). LV+dP/dtmax is derived from the LVP signal by a differential amplifier and recorded. HR is calculated from the ECG strip chart recording and CF is calculated by recording analog outputs from pumps 1 and 2. Outputs from pump #1 =CFT and the output from pump #2 =CF for heart B (CFB). CF for heart A (CFA) is calculated ([…]). All pumps are calibrated weekly or when pump tubing is replaced.
Compounds are solubilized in DMSO and diluted with water when possible. EC^25 data are obtained from data that is digitized and averaged in a conventional manner.

dihydropyridine receptor = assay: inhibition of [3H]-nitrendipine binding in rat brain homogenate; conditions: read-out: IC50 (index of dihydropyridine receptor affinity; inhibition of [3H]-nitrendipine binding)
From the text: *Index of dihydropyridine receptor affinity: IC50 for inhibition of
[^3 H]--nitrendipine binding in rat brain homogenate.

anesthetized dog = assay: in vivo myocardial inotropic activity in the anesthetized dog; conditions: 1 mg/kg, femoral vein, pentobarbital anesthetized dog
Description: TEST FOR IN VIVO MYOCARDIAL INOTROPIC ACTIVITY IN THE ANESTHETIZED DOG
Adult mongrel dogs of either sex are anesthetized with pentobarbital, 35 mg/kg, IV, and are maintained under anesthesia with a continuous infusion of pentobarbital, 3.5 mg/kg/hr. The trachea is intubated, but the animals are permitted to breathe spontaneously. A cannula is inserted into the femoral vein for administering test agents. A Millar catheter tip pressure transducer or a fluid filled catheter is inserted into the ascending aorta via the femoral artery for measuring pressure. A Millar catheter tip pressure transducer is passed into the left ventricle via the left carotid artery for measuring left ventricular blood pressure. Needle electrodes are placed subcutaneously for recording a lead II electrocardiogram. Before administering test agents, control data is acquired over a period of at least thirty minutes.
The test agent is dissolved in dimethylacetamide. Each dose is administered in a volume of 0.5 ml over a period of one minute. Appropriate vehicle controls are also administered.

[2] = tested on: isolated Langendorff rat heart; assay: inotropic and vascular activities in the isolated Langendorff rat heart preparation (CVIH); conditions: LV+dP/dtmax; isolated perfused rat heart; EC20 instead of EC25; read-out: EC20 Contractility
[3] = LV+dP/dtmax, read-out: EC25 Contractility
[4] = coronary flow, read-out: EC25 Flow

| Compound | EC25 [1, 3] | EC25 [1, 4] | IC50 (dihydropyridine receptor) | decrease in blood pressure (anesthetized dog) | increase in contractility (anesthetized dog) | increase in heart rate (anesthetized dog) | EC20 [2] |
| --- | --- | --- | --- | --- | --- | --- | --- |
| CCOC(=O)C1=C(C)N/C(=C\C(=O)c2ccccc2)C(C(=O)OCC)C1c1ccccn1 (racemic) [Example 16, (2Z,3α,4β)-(±)-Diethyl-1,2,3,4-tetrahydro-6-methyl-2-[2-oxo-2-phenylethylidene]-4-[2-pyridyl]-3,5-pyridinedicarboxylate] | 1000 nM | 1000 nM | 25 nM | – | – | – | – |
| CCOC(=O)C1=C(C)N/C(=C\C(=O)c2ccccc2)[C@@H](C(=O)OCC)[C@@H]1c1ccccc1C(F)(F)F (relative stereo) [Example 1, (2Z,3α,4β)-(±)-Diethyl-1,2,3,4-tetrahydro-6-methyl-2-(2-oxo-2-phenylethylidene)-4-[2-(trifluoromethyl)-phenyl]-3,5-pyridinedicarboxylate] | 100 nM | 300 nM | 280 nM | – | – | – | – |
| CCOC(=O)C1=C(C)N/C(=C\C(=O)c2ccncc2)[C@@H](C(=O)OCC)[C@@H]1c1ccccc1C(F)(F)F (relative stereo) [Example 2] | > 3000 nM | < 100 nM | 20 nM | 21% | 99% | 67% | – |
| CCOC(=O)C1=C(C)N/C(=C\C(=O)c2ccc(Cl)cc2)[C@@H](C(=O)OCC)[C@@H]1c1ccccc1C(F)(F)F (relative stereo) [Example 3, (2Z,3α,4β)-Diethyl-2-[2-(4-chlorophenyl)-2-oxoethylidene]-1,2,3,4-tetrahydro-6-methyl-4-[2-(trifluoromethyl)phenyl]-3,5-pyridinedicarboxylate] | < 100 nM | < 100 nM | 190 nM | – | – | – | – |
| CCOC(=O)C1=C(C)N/C(=C\C(=O)c2ccc(F)cc2)[C@@H](C(=O)OCC)[C@@H]1c1ccccc1C(F)(F)F (relative stereo) [Example 4, (2Z,3α,4β)-Diethyl-2-[2-(4-fluorophenyl)-2-oxoethylidene]-1,2,3,4-tetrahydro-6-methyl-4-[2-(trifluoromethyl)phenyl]-3,5-pyridinedicarboxylate] | > 3000 nM | 300 nM | 52 nM | – | – | – | – |
| CCOC(=O)C1=C(C)N/C(=C\C(=O)c2ccc(C)cc2)[C@@H](C(=O)OCC)[C@@H]1c1ccccc1C(F)(F)F (relative stereo) [Example 5, (2Z,3α,4β)-Diethyl-2-[2-(4-methylphenyl)-2-oxoethylidene]-1,2,3,4-tetrahydro-6-methyl-4-[2(trifluoromethyl)phenyl]-3,5-pyridinedicarboxylate] | > 3000 nM | 130 nM | 360 nM | – | – | – | – |
| CCOC(=O)C1=C(C)N/C(=C\C(=O)c2ccc(N(C)C)cc2)[C@@H](C(=O)OCC)[C@@H]1c1ccccc1C(F)(F)F (relative stereo) [Example 6, (2Z,3α,4β)-(±) -Diethyl-1,2,3,4-tetrahydro-6-methyl-2-[2-oxo-2-4-(dimethylamino)phenyl)ethylidene]-4-[2-(trifluoromethyl)phenyl]-3,5-pyridine-dicarboxylate] | > 3000 nM | 200 nM | – | – | – | – | – |
| CCOC(=O)[C@H]1/C(=C/C(=O)c2ccccc2)NC(C)=C([N+](=O)[O-])[C@@H]1c1ccccc1C(F)(F)F (relative stereo) [Example 7, (2Z,3α,4β)-(±)-1,2,3,4-Tetrahydro-6-methyl-5-nitro-2-[2-oxo-2-phenylethylidene]-4-[2-(trifluoromethyl)phenyl]-3-pyridinedicarboxylic acid ethyl ester] | > 3000 nM | 100 nM | 130 nM | – | – | – | – |
| CC1=C([N+](=O)[O-])[C@H](c2ccccc2C(F)(F)F)[C@@H](C(=O)c2ccccc2)/C(=C/C(=O)c2ccccc2)N1 (relative stereo) [Example 8, [trans-(Z)]-2-[3-Benzoyl-3,4-dihydro-6-methyl-5-nitro-4-[2-(trifluoromethyl)phenyl]-2-(1H)pyridinylidene]1-phenylethanone] | > 3000 nM | 300 nM | > 1000 nM | – | – | – | – |
| CCOC(=O)C1=C(C)N/C(=C\C(=O)c2ccccc2)[C@@H](C(=O)c2ccccc2)[C@@H]1c1ccccc1C(F)(F)F (relative stereo) [Example 9, (4α,5β,6Z)-(±)-Ethyl-5-benzoyl-1,4,5,6-tetrahydro-2-methyl-6-(2-oxo-2-phenylethylidene)-4-[2-trifluoromethyl)phenyl]3-pyridinecarboxylate] | 1200 nM | 400 nM | 110 nM | – | – | – | – |
| CCOC(=O)[C@@H]1/C(=C/C(=O)c2ccccc2)NC2=C(C(=O)CCC2)[C@H]1c1ccccc1C(F)(F)F (relative stereo) [Example 10] | 2000 nM | 1400 nM | > 1000 nM | – | – | – | – |
| CCOC(=O)[C@@H]1/C(=C2\CCc3ccccc3C2=O)NC(C)=C(C#N)[C@H]1c1ccccc1C(F)(F)F (relative stereo) [Example 11] | – | 1000 nM | > 1000 nM | – | – | – | 1000 nM |
| CCOC(=O)C1=C(C)NC(=C2CCc3ccccc3C2=O)[C@@H](C(=O)OCC)[C@@H]1c1ccccc1C(F)(F)F (relative stereo) [Example 12] | – | – | > 1000 nM | – | – | – | – |
| CCOC(=O)C1=C(C)N/C(=C\C(=O)c2ccccc2)[C@@H](C(=O)OCC)[C@@H]1c1cccc([N+](=O)[O-])c1 (relative stereo) [Example 14, (2Z,3α,4β)-(±)-Diethyl-1,2,3,4-tetrahydro-6-methyl-2-[2-oxo-2-phenylethylidene]-4-[3-nitrophenyl]-3,5-pyridinedioarboxylate] | 1000 nM | 1000 nM | 85 nM | – | – | – | – |
| CCOC(=O)C1=C(C)N/C(=C\C(=O)c2ccccc2)[C@@H](C(=O)OCC)[C@@H]1c1cccc(Cl)c1Cl (relative stereo) [Example 15, (2Z,3α,4β)-(±)-Diethyl-1,2,3,4-tetrahydro-6-methyl-2-[2-oxo-2-phenylethylidene]-4-2,3-dichlorophenyl]-3,5-pyridinedicarboxylate] | 1000 nM | 1000 nM | 180 nM | – | – | – | – |
| (2Z,3α,4β)-(±)-Diethyl-1,2,3,4-tetrahydro-6-methyl-2-[2-oxo-2-phenylethylidene]-4-[2-nitrophenyl-3,5-pyridinedicarboxylate [Example 13] | 1000 nM | 1000 nM | 39 nM | – | – | – | – |
